Measured values as given in article PMC4688878 (Chemical Research in Toxicology, 2015).

Target: T1, porcine liver COMT (Sus scrofa, UniProt Q99028)
T1 sequence (Q99028 1-186): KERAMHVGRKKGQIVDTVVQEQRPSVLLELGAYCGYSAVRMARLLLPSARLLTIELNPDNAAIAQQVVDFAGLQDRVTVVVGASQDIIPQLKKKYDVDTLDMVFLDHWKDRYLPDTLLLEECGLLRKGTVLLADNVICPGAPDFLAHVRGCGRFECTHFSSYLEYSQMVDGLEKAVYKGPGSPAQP
Test: Catechol O-methyltransferase activity assay
Assay type: biochemical
Conditions: 1 mM sinefungin; 1 mM SAM; 2 h at 37 °C

## Nc1ncnc2c1ncn2[C@@H]1O[C@H](C[C@@H](N)CC[C@H](N)C(=O)O)[C@@H](O)[C@H]1O [singfungin, sinefungin]
  inhibition of COMT activity: significantly inhibited
